Data published in article PMC2825274 (PLoS ONE, 2010).
In brackets after ≈: the same amount, converted by molar mass. Several values for one entry are separate records, joined by “and”; a condition that tells them apart may be missing. Equal values may be shown once. Entries after “also recorded” stand apart in the source; their conditions may differ. Read-outs that look alike come from different tables or passages of the source.

Key:
[1] = test system: A/New Caledonia/20/99 (H1N1) (NC20) susceptible; experiment: microbe, parasite or virus in culture; assay type: cell-based, influenza A virus
[2] = test system: influenza A/California/04/09 (H1N1) (CA04); experiment: microbe, parasite or virus in culture; assay type: cell-based, influenza A virus; conditions: for EC50: Influenza A virus, H1N1, MDCK, 72 h
[3] = test system: 2009 H1N1 influenza strains A/California/04/09 (CA04), A/California/05/09 (CA05) and A/California/10/09 (CA10); experiment: microbe, parasite or virus in culture; assay type: cell-based, influenza A virus; conditions: for EC50: Influenza A virus, H1N1, MDCK
[4] = test system: influenza A/California/05/09 (H1N1) (CA05); experiment: microbe, parasite or virus in culture; assay type: cell-based, influenza A virus; conditions: for EC50: Influenza A virus, H1N1, MDCK, 72 h

| Molecule | EC50 ([1]; Influenza A virus, H1N1, MDCK) [µg/mL] | EC50 [2] | EC50 [3] | EC50 [4] | inhibition of virus-induced CPE as single agent [3] | also measured |
| --- | --- | --- | --- | --- | --- | --- |
| NC12CC3CC(CC(C3)C1)C2 [Amantadine] | 0.22 (≈ 1.45 µM) | 85 µM and 16 µg/mL | 16 µg/mL to 20 µg/mL and 85 µM to 106 µM | 106 µM and 20 µg/mL |  | amantadine concentration with significant contribution to the synergy of the TCAD regimen [2]: 3.2 µg/mL; contribution to the total synergy of the TCAD regimen [2]: 39%; antiviral activity as a single agent [3]: no significant antiviral activity; fold reduction in susceptibility [3]: > 250 fold; fold reduction of single-agent activity [3]: 100 fold; amantadine concentration with significant contribution to the synergy of the TCAD regimen [4]: ≥ 0.1 µg/mL; contribution to the total synergy of the TCAD regimen [4]: 24% |
| CCC(CC)[C@H](NC(C)=O)[C@@H]1[C@H](O)[C@@H](C(=O)O)C[C@H]1N=C(N)N [Peramivir] |  |  |  |  | concentration-dependent inhibition of cytopathic effect | TC50 (MDCK cells): >100 µg/mL |
| NC(=O)c1ncn([C@@H]2O[C@H](CO)[C@@H](O)[C@H]2O)n1 [Ribavirin] | 3.1 (≈ 12.7 µM) | 28 µM and 7 µg/mL |  | 23 µM and 5.6 µg/mL | concentration-dependent inhibition of cytopathic effect |  |
| CC(N)C12CC3CC(CC(C3)C1)C2 (stereo not drawn) [Rimantadine, rimantadine] |  | > 51 µM and > 11 µg/mL | > 12 µg/mL and > 55 µM | > 55 µM and > 12 µg/mL | did not produce inhibition; also recorded: no activity |  |
| CC(=O)N[C@H]1[C@H]([C@H](O)[C@H](O)CO)OC(C(=O)O)=C[C@@H]1N=C(N)N [Zanamivir] |  | 350 nM and 0.12 µg/mL |  | 230 nM and 0.078 µg/mL | concentration-dependent inhibition of cytopathic effect | TC50 (MDCK cells; dog): >100 µg/mL |
| Oseltamivir carboxylate |  |  |  |  | concentration-dependent inhibition of cytopathic effect | EC50 [1]: 0.20 µg/mL |
